Assays:
Assay type in all cases: cell-based
[1] = system: HIV-1 K103N + Y181C (RES056); assay: microbe, parasite or virus in culture; settings: for EC50: Human immunodeficiency virus 1, MT4, read-out: EC50 RES056; for RF RES056: resistance fold, EC50 (mutant strain)/EC50 (WT strain); for SI RES056: selectivity index, ratio of CC50/EC50
HIV-1 WT strain (IIIB) = assay: Anti-HIV-1 activity in MT-4 cells, MTT method, WT strain IIIB; settings: Human immunodeficiency virus 1, IIIB, MT4, read-out: EC50 IIIB
[2] = Cytotoxicity in mock-infected MT-4 cells, MTT method; settings: human
HIV-1 Y181C = assay: microbe, parasite or virus in culture; settings: for EC50: Human immunodeficiency virus 1, MT4, read-out: EC50 Y181C; for RF Y181C: resistance fold, EC50 (mutant strain)/EC50 (WT strain); for SI Y181C: selectivity index, ratio of CC50/EC50
HIV-1 F227L + V106A = assay: microbe, parasite or virus in culture; settings: for EC50: Human immunodeficiency virus 1, MT4, read-out: EC50 F227L + V106A; for RF F227L + V106A: resistance fold, EC50 (mutant strain)/EC50 (WT strain); for SI F227L + V106A: selectivity index, ratio of CC50/EC50
HIV-1 E138K = assay: microbe, parasite or virus in culture; settings: for EC50: Human immunodeficiency virus 1, MT4, read-out: EC50 E138K; for RF E138K: resistance fold, EC50 (mutant strain)/EC50 (WT strain); for SI E138K: selectivity index, ratio of CC50/EC50
HIV-1 L100I = assay: microbe, parasite or virus in culture; settings: for EC50: Human immunodeficiency virus 1, MT4, read-out: EC50 L100I; for RF L100I: resistance fold, EC50 (mutant strain)/EC50 (WT strain); for SI L100I: selectivity index, ratio of CC50/EC50
HIV-1 Y188L = assay: microbe, parasite or virus in culture; settings: for EC50: Human immunodeficiency virus 1, MT4, read-out: EC50 Y188L; for RF Y188L: resistance fold, EC50 (mutant strain)/EC50 (WT strain); for SI Y188L: selectivity index, ratio of CC50/EC50
HIV-1 K103N = assay: microbe, parasite or virus in culture; settings: for EC50: Human immunodeficiency virus 1, MT4, read-out: EC50 K103N; for RF K103N: resistance fold, EC50 (mutant strain)/EC50 (WT strain); for SI K103N: selectivity index, ratio of CC50/EC50

Structure (SMILES): CCOC(=O)c1ccc(CN2CCC(Nc3nc4c(c(Oc5c(C)cc(C#N)cc5C)n3)SCCC4)CC2)cc1 [23e, Ethyl 4-((4-((4-(4-cyano-2,6-dimethylphenoxy)-7,8-dihydro-6H-thiopyrano[3,2-d]pyrimidin-2-yl)amino)piperidin-1-yl)methyl)benzoate]
- EC50 [1]: 4830 ± 517 nM
- EC50 (HIV-1 WT strain (IIIB)): 14.8 ± 13.5 nM
- CC50 at 5 days [2]: 65300 ± 39800 nM

Structure (SMILES): Cc1cc(C#N)cc(C)c1Oc1nc(NC2CCN(Cc3ccc(N)cc3)CC2)nc2c1SCCC2 [23f, 4-((2-((1-(4-Aminobenzyl)piperidin-4-yl)amino)-7,8-dihydro-6H-thiopyrano[3,2-d]pyrimidin-4-yl)oxy)-3,5-dimethylbenzonitrile]
- EC50 [1]: 653 ± 236 nM
- RF RES056 [1]: 93.3
- SI RES056 [1]: 18
- EC50 (HIV-1 Y181C): 14.7 ± 1.17 nM
- RF Y181C (HIV-1 Y181C): 2.1
- SI Y181C (HIV-1 Y181C): 816
- EC50 (HIV-1 WT strain (IIIB)): 7 ± 1.04 nM
- EC50 (HIV-1 F227L + V106A): 184 ± 8.33 nM
- RF F227L + V106A (HIV-1 F227L + V106A): 26.3
- SI F227L + V106A (HIV-1 F227L + V106A): 65
- EC50 (HIV-1 E138K): 21.6 ± 0.56 nM
- RF E138K (HIV-1 E138K): 3.0
- SI E138K (HIV-1 E138K): 556
- CC50 at 5 days [2]: 12000 ± 6470 nM
- EC50 (HIV-1 L100I): 55.6 ± 2.68 nM
- RF L100I (HIV-1 L100I): 7.9
- SI L100I (HIV-1 L100I): 216
- EC50 (HIV-1 Y188L): 26.1 ± 3.53 nM
- RF Y188L (HIV-1 Y188L): 3.7
- SI Y188L (HIV-1 Y188L): 460
- EC50 (HIV-1 K103N): 8.69 nM
- RF K103N (HIV-1 K103N): 1.2
- SI K103N (HIV-1 K103N): 1381

Structure (SMILES): Cc1cc(C#N)cc(C)c1Oc1nc(NC2CCN(Cc3ccc(NS(C)(=O)=O)cc3)CC2)nc2c1SCCC2 [23g, N-(4-((4-((4-(4-cyano-2,6-dimethylphenoxy)-7,8-dihydro-6H-thiopyrano[3,2-d]pyrimidin-2-yl)amino)piperidin-1-yl)methyl)phenyl)methanesulfonamide]
- EC50 [1]: 326 ± 185 nM
- RF RES056 [1]: 138
- SI RES056 [1]: ≥ 12
- EC50 (HIV-1 Y181C): ≤ 8.29 nM
- RF Y181C (HIV-1 Y181C): ≤ 3.5
- SI Y181C (HIV-1 Y181C): ≥ 467
- EC50 (HIV-1 WT strain (IIIB)): 2.37 ± 1.98 nM
- EC50 (HIV-1 F227L + V106A): 165 ± 40.8 nM
- RF F227L + V106A (HIV-1 F227L + V106A): 69.6
- SI F227L + V106A (HIV-1 F227L + V106A): ≥ 23
- EC50 (HIV-1 E138K): 8.66 ± 0.54 nM
- RF E138K (HIV-1 E138K): 3.7
- SI E138K (HIV-1 E138K): ≥ 447
- CC50 at 5 days [2]: ≥ 3870 nM
- EC50 (HIV-1 L100I): 28 ± 5.38 nM
- RF L100I (HIV-1 L100I): 11.8
- SI L100I (HIV-1 L100I): ≥ 138
- EC50 (HIV-1 Y188L): 12.7 ± 2.99 nM
- RF Y188L (HIV-1 Y188L): 5.4
- SI Y188L (HIV-1 Y188L): ≥ 305
- EC50 (HIV-1 K103N): 4.59 ± 0.45 nM
- RF K103N (HIV-1 K103N): 1.9
- SI K103N (HIV-1 K103N): ≥ 843

Structure (SMILES): Cc1cc(C)c(Oc2nc(NC3CCN(Cc4ccc(S(N)(=O)=O)cc4)CC3)nc3c2SCCC3)c(C)c1 [23i, 4-((4-((4-(Mesityloxy)-7,8-dihydro-6H-thiopyrano[3,2-d]pyrimidin-2-yl)amino)piperidin-1-yl)methyl)benzenesulfonamide]
- EC50 [1]: 442 ± 272 nM
- RF RES056 [1]: 81.4
- SI RES056 [1]: ≥ 511
- EC50 (HIV-1 Y181C): 35.7 ± 5.75 nM
- RF Y181C (HIV-1 Y181C): 6.6
- SI Y181C (HIV-1 Y181C): ≥ 6331
- EC50 (HIV-1 WT strain (IIIB)): 5.43 ± 4.4 nM
- EC50 (HIV-1 F227L + V106A): 64.7 ± 13.3 nM
- RF F227L + V106A (HIV-1 F227L + V106A): 11.9
- SI F227L + V106A (HIV-1 F227L + V106A): ≥ 3493
- EC50 (HIV-1 E138K): 37.6 ± 7.41 nM
- RF E138K (HIV-1 E138K): 6.9
- SI E138K (HIV-1 E138K): ≥ 6011
- CC50 at 5 days [2]: ≥ 226000 nM
- EC50 (HIV-1 L100I): 39.2 ± 7.66 nM
- RF L100I (HIV-1 L100I): 7.2
- SI L100I (HIV-1 L100I): ≥ 5765
- EC50 (HIV-1 Y188L): 43 ± 0.26 nM
- RF Y188L (HIV-1 Y188L): 7.9
- SI Y188L (HIV-1 Y188L): ≥ 5256
- EC50 (HIV-1 K103N): 6.56 ± 1.07 nM
- RF K103N (HIV-1 K103N): 1.2
- SI K103N (HIV-1 K103N): ≥ 34,451

Structure (SMILES): Cc1cc(C#N)cc(C)c1Oc1nc(NC2CCN(c3cccc(C(N)=O)c3)CC2)nc2c1SCCC2 [27b, 3-(4-((4-(4-Cyano-2,6-dimethylphenoxy)-7,8-dihydro-6H-thiopyrano[3,2-d]pyrimidin-2-yl)amino)piperidin-1-yl)benzamide]
- EC50 [1]: 24.5 ± 8.11 nM
- RF RES056 [1]: 6.5
- SI RES056 [1]: 244
- EC50 (HIV-1 Y181C): 7.87 ± 1.84 nM
- RF Y181C (HIV-1 Y181C): 2.1
- SI Y181C (HIV-1 Y181C): 761
- EC50 (HIV-1 WT strain (IIIB)): 3.76 ± 2.29 nM
- EC50 (HIV-1 F227L + V106A): 111 ± 11.4 nM
- RF F227L + V106A (HIV-1 F227L + V106A): 29.5
- SI F227L + V106A (HIV-1 F227L + V106A): 54
- EC50 (HIV-1 E138K): 17.1 ± 4.42 nM
- RF E138K (HIV-1 E138K): 4.5
- SI E138K (HIV-1 E138K): 350
- CC50 at 5 days [2]: 5990 ± 2950 nM
- EC50 (HIV-1 L100I): 13.3 ± 6.79 nM
- RF L100I (HIV-1 L100I): 3.5
- SI L100I (HIV-1 L100I): 450
- EC50 (HIV-1 Y188L): 7.14 ± 1.5 nM
- RF Y188L (HIV-1 Y188L): 1.9
- SI Y188L (HIV-1 Y188L): 839
- EC50 (HIV-1 K103N): 5.46 nM
- RF K103N (HIV-1 K103N): 1.5
- SI K103N (HIV-1 K103N): 1097

Structure (SMILES): O=C1Nc2ccc(Cl)cc2[C@@](C#CC2CC2)(C(F)(F)F)O1 [EFV, efavirenz, reference compound]
- EC50 [1]: 114 ± 55.6 nM
- EC50 (HIV-1 Y181C): 4.94 ± 1.75 nM
- EC50 (HIV-1 WT strain (IIIB)): 2.67 ± 1.73 nM
- EC50 (HIV-1 F227L + V106A): 77.4 ± 55.9 nM
- EC50 (HIV-1 E138K): 4.67 ± 1.38 nM
- CC50 at 5 days [2]: > 6340 nM
- EC50 (HIV-1 L100I): 57.4 ± 45.9 nM
- EC50 (HIV-1 Y188L): 93.2 ± 58.9 nM
- EC50 (HIV-1 K103N): 99.2 ± 56.8 nM

Structure (SMILES): Cc1cc(C#N)cc(C)c1Oc1nc(NCCN2CCOCC2)nc2c1SCCC2 [compound 20d, 3,5-Dimethyl-4-((2-((2-morpholinoethyl)amino)-7,8-dihydro-6H-thiopyrano[3,2-d]pyrimidin-4-yl)oxy)benzonitrile]
- EC50 (HIV-1 WT strain (IIIB)): 5690 ± 4760 nM
- CC50 at 5 days [2]: 20500 ± 11300 nM

Structure (SMILES): Cc1cc(C#N)cc(C)c1Oc1nc(NC2CCN(Cc3cccc(C#N)c3)CC2)nc2c1SCCC2 [compound 23b, 4-((2-((1-(3-Cyanobenzyl)piperidin-4-yl)amino)-7,8-dihydro-6H-thiopyrano[3,2-d]pyrimidin-4-yl)oxy)-3,5-dimethylbenzonitrile]
- EC50 [1]: 764 ± 86.1 nM
- EC50 (HIV-1 WT strain (IIIB)): 6 ± 1.03 nM
- CC50 at 5 days [2]: 3780 ± 630 nM

Structure (SMILES): Cc1cc(C#N)cc(C)c1Oc1nc(NC2CCN(c3cccc(C#N)c3)CC2)nc2c1SCCC2 [compound 27a, 4-((2-((1-(3-Cyanophenyl)piperidin-4-yl)amino)-7,8-dihydro-6H-thiopyrano[3,2-d]pyrimidin-4-yl)oxy)-3,5-dimethylbenzonitrile]
- EC50 [1]: 836 ± 290 nM
- EC50 (HIV-1 WT strain (IIIB)): 10.2 ± 7.57 nM
- CC50 at 5 days [2]: 8390 ± 5220 nM
